Results: the supplement of paper PMC11451515

What was measured:
Settings in all cases: 48 h
P12-Ichikawa [1] = experiment: cell viability relative to DMSO control; higher = less cytotoxic
Outline: (§1)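 Viability, reported as a per-plate percentage of DMSO wells with cell-free wells as background, came from CellTiter-Glo One luminescence. Reading took place after 48 h at 37°C. Before that, NOMO1 or SEM (500 cells/well) or P12-Ichikawa (1000 cells/well) leukemia cells, adapted for at least four passages in each medium, were seeded in 1536-well plates (5 μl) and pin-dosed with library compounds in DMSO, 47 μM to 0.79 nM over 11 threefold points.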

NOMO1 [2] = experiment: as above
Outline: as §1

SEM cells [3] = experiment: as above
Outline: as §1

P12-Ichikawa [4] = experiment: AUC of viability dose-response curve (% viability x log10 dose units); higher = less sensitive
Outline: (§2)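 Leukemia cells adapted to each medium were seeded at 500 or 1000 cells/well in 1536-well plates and dosed with library compounds in DMSO at 11 threefold doses from 47 μM to 0.79 nM for 48 h at 37°C. CellTiter-Glo One luminescence was normalised per plate to DMSO and cell-free wells, then fitted with a four-parameter log-logistic model over log10 doses. Area under the curve was taken from this fit by the trapezoidal rule, with curves above full viability scaled and curves failing quality control removed.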

NOMO1 [5] = experiment: as above
Outline: as §2

SEM cells [6] = experiment: as above
Outline: as §2

CCc1cc(Nc2nccc(-c3c(-c4ccc(OC)c(C(=O)Nc5c(F)cccc5F)c4)nc4ccccn34)n2)c(OC)cc1N1CCC(N2CCN([S+](C)(=O)[O-])CC2)CC1
cell viability [%]
Settings	NOMO1 [2]	P12-Ichikawa [1]	SEM cells [3]
HPLM + 10% dialyzed FBS, 0.000781 µM	101	97.9	88.9
HPLM + 10% dialyzed FBS, 0.00234 µM	95.2	108	84.9
HPLM + 10% dialyzed FBS, 0.00702 µM	103	100	102
HPLM + 10% dialyzed FBS, 0.0211 µM	104	112	93.2
HPLM + 10% dialyzed FBS, 0.0632 µM	105	107	87.7
HPLM + 10% dialyzed FBS, 0.19 µM	96.7	112	84.8
HPLM + 10% dialyzed FBS, 0.569 µM	114	110	95.3
HPLM + 10% dialyzed FBS, 1.71 µM	120	110	89.1
HPLM + 10% dialyzed FBS, 5.12 µM	103	112	96.2
HPLM + 10% dialyzed FBS, 15.4 µM	96	87.1	82.6
HPLM + 10% dialyzed FBS, 46.1 µM	43.2	39.8	52.4
RPMI 5 mM glucose + 10% FBS, 0.000781 µM	101	98.3	88.4
RPMI 5 mM glucose + 10% FBS, 0.00234 µM	91.5	101	94.6
RPMI 5 mM glucose + 10% FBS, 0.00702 µM	92.7	106	102
RPMI 5 mM glucose + 10% FBS, 0.0211 µM	95.3	105	100
RPMI 5 mM glucose + 10% FBS, 0.0632 µM	94.6	107	107
RPMI 5 mM glucose + 10% FBS, 0.19 µM	102	113	121
RPMI 5 mM glucose + 10% FBS, 0.569 µM	114	111	105
RPMI 5 mM glucose + 10% FBS, 1.71 µM	106	113	91.6
RPMI 5 mM glucose + 10% FBS, 5.12 µM	101	109	91.9
RPMI 5 mM glucose + 10% FBS, 15.4 µM	111	85.1	66.6
RPMI 5 mM glucose + 10% FBS, 46.1 µM	44.6	37.9	23.5
RPMI 5 mM glucose + 10% dialyzed FBS, 0.000781 µM	84.8	108	83.1
RPMI 5 mM glucose + 10% dialyzed FBS, 0.00234 µM	90.1	116	78
RPMI 5 mM glucose + 10% dialyzed FBS, 0.00702 µM	94.8	112	80.7
RPMI 5 mM glucose + 10% dialyzed FBS, 0.0211 µM	101	114	101
RPMI 5 mM glucose + 10% dialyzed FBS, 0.0632 µM	104	107	87.8
RPMI 5 mM glucose + 10% dialyzed FBS, 0.19 µM	86	107	79.9
RPMI 5 mM glucose + 10% dialyzed FBS, 0.569 µM	102	109	86
RPMI 5 mM glucose + 10% dialyzed FBS, 1.71 µM	107	125	80.6
RPMI 5 mM glucose + 10% dialyzed FBS, 5.12 µM	109	115	89.1
RPMI 5 mM glucose + 10% dialyzed FBS, 15.4 µM	98.3	87.4	65.9
RPMI 5 mM glucose + 10% dialyzed FBS, 46.1 µM	65.5	49.6	38.7

AUC of viability dose-response curve
Settings	NOMO1 [5]	P12-Ichikawa [4]	SEM cells [6]
HPLM + 10% dialyzed FBS	459	453	423
RPMI 5 mM glucose + 10% FBS	464	451	435
RPMI 5 mM glucose + 10% dialyzed FBS	457	453	386
